The target of one series is T1, human GIPR (Homo sapiens, UniProt P48546).
T1 construct: expressed in transfected cells
T1 sequence (P48546 22-466): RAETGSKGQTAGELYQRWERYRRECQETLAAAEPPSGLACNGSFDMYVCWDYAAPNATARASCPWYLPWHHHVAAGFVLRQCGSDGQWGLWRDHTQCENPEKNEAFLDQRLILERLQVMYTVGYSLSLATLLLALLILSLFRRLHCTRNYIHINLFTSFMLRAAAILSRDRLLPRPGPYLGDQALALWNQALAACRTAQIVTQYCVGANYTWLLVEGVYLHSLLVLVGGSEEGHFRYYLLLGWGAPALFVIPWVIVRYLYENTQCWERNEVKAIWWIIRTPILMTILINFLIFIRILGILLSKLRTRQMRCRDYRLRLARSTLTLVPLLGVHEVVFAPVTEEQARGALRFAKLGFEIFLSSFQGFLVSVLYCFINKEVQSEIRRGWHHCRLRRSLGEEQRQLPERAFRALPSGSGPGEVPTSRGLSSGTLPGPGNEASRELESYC
The experiment in a line: Agonistic activity on GIPR of different species (LANCE Ultra cAMP assay): human. Type of series: cell-based. The following applies: ratio of EC50 value of other species to human EC50 value. As to the method: CHO-K1 cells were seeded in a 6-well plate at 0.6×10^6 cells/well and incubated overnight in an incubator at a temperature of 37 °C and a carbon dioxide concentration of 5%. The next day, CHO-K1 cell media were replaced. Then two tubes A and B were prepared for each plasmid. 100 µL Opti-MEM was added to tube A, then 4 µL Lipofectamine™ 3000 was added and mixed uniformly. 100 µL Opti-MEM was firstly added to tube B, then 2 µg of one of the plasmids (human GIPR-pcDNA5 (+) plasmid, dog GIPR-pcDNA5 (+) plasmid, mouse GIPR-pcDNA5 (+) plasmid, rat GIPR-pcDNA5 (+) plasmid, rabbit GIPR-pcDNA5 (+) plasmid, monkey GIPR-pcDNA5 (+) plasmid) was added and mixed uniformly, and 4 µL P3000™ was added to tube B and mixed uniformly (the ratio of plasmid to transfection reagent was 1 µg: 2 µL). […]
18-20 hours after transfection, human GIPR-CHO, dog GIPR-CHO, mouse GIPR-CHO, rat GIPR-CHO, rabbit GIPR-CHO, and monkey GIPR-CHO cells were resuspended in 1×Casein Stimulation Buffer (HBSS, 5 mM HEPES, 0.5 mM IBMX, 0.1% casein, pH7.4), and seeded into a 384-well cell culture plate at 9 µL/well (cell numbers being 1000, 2000, 2000, 2000, 2000, 2000 cells/well, respectively). […] The readings at 665 nm and 620 nm were determined with a 330 nm excitation light on a microplate reader. The 665 nm/620 nm reading ratio was calculated. […]
Background: TR-FRET usually uses a lanthanide donor and a delayed reading to cut background.

The nature of series [1]: Pharmacokinetics in beagle dogs. In kind it is in vivo. The following applies: for MRT: beagle. The method, then:
After subcutaneous administration to beagle dogs, plasma was collected and the drug concentration in plasma was determined to illustrate the in vivo pharmacokinetic properties of the compound according to the present invention. The compound of the present invention was administered to a beagle dog (7-9 kg) at a dose of 0.05mg/kg subcutaneously (s.c.). About 500 µL of whole blood was collected from the saphenous vein into an EDTA-K2 anticoagulant tube at predose, 0.5 hours, 1 hour, 2 hours, 6 hours, 10 hours, 24 hours, 48 hours, 72 hours and 96 hours, respectively. The blood samples were centrifuged at 3000 g and at 2°C to 8°C for 10 minutes to obtain plasma, which was stored at -90°C to -60°C for further analysis and assay.
20.0 µL of thawed plasma sample was taken. […] Then 120 µL of 0.1% formic acid in methanol was added to precipitate the protein. The mixture was vortexed for 5 minutes, and centrifuged at 4815g for 10 minutes. 100.0 µL of the supernatant was taken, into which 100 µL of 0.5% aqueous formic acid solution was added. The mixture was vortexed for 5 minutes. 10 µL of the mixture solution was sampled and injected into the LC-MS/MS to determine the drug concentration in plasma.
Based on the drug concentration in plasma of the compound in the beagle dogs, the pharmacokinetic parameters were calculated by applying the software Winnolin 8.3 in a non-compartmental model. Table 11 Average pharmacokinetic parameters after single subcutaneous administration in beagle dogs

Setting [2] is: beagle dogs, single subcutaneous administration, 0.05mg/kg.
Setting [3] is: dog, in vivo, sc, beagle dogs, single subcutaneous administration, 0.05mg/kg.

Read-outs that look alike come from different tables or passages of the source.

The record followed here is EP4813403A1, “USE OF GLP-1R/GIPR DOUBLE-TARGET AGONIST IN PREPARING ANIMAL DRUG” (Hangzhou Zhongmeihuadong Pharmaceutical Co., Ltd., priority 2023, dated 2025).

The Cmax is the maximum level reached in the sampled fluid or tissue. What is called Tmax is the time from dosing to the highest level. Broadly, the MRT is the average time that molecules of a dose stay in the body. For orientation: AUC(0-inf) means total exposure, with the tail of the curve extrapolated. Read a high AUC(0-inf) as more exposure. Usually half-life stands for how long it takes for the measured level to halve. Low readings indicate fast loss, high ones slow loss.

`CC[C@H](C)[C@H](NC(=O)C(C)(C)NC(=O)[C@H](Cc1ccc(O)cc1)NC(=O)[C@H](CC(=O)O)NC(=O)[C@H](CO)NC(=O)[C@@H](NC(=O)C(C)(Cc1ccccc1)NC(=O)[C@@H](NC(=O)CNC(=O)[C@H](CCC(=O)O)NC(=O)C(C)(C)NC(=O)[C@@H](N)Cc1ccc(O)cc1)[C@@H](C)O)[C@@H](C)O)C(=O)NC(C)(C)C(=O)N[C@@H](CC(C)C)C(=O)N[C@@H](CC(=O)O)C(=O)N[C@@H](CCCCN)C(=O)N[C@@H](CCC(N)=O)C(=O)N[C@@H](C)C(=O)N[C@@H](CCC(N)=O)C(=O)N[C@@H](C)C(=O)N[C@@H](CCC(=O)O)C(=O)N[C@@H](Cc1ccccc1)C(=O)N[C@H](C(=O)N[C@@H](CCCCNC(=O)COCCOCCNC(=O)COCCOCCNC(=O)COCCOCCNC(=O)CC[C@H](NC(=O)CCCCCCCCCCCCCCCCCCCCC(=O)O)C(=O)O)C(=O)N[C@@H](Cc1c[nH]c2ccccc12)C(=O)N[C@@H](CC(C)C)C(=O)N[C@@H](CC(C)C)C(=O)N[C@@H](CCCCN)C(=O)NCC(=O)NCC(=O)N1CCC[C@H]1C(=O)N[C@@H](CO)C(=O)N[C@@H](CO)C(=O)NCC(=O)N[C@@H](C)C(=O)N1CCC[C@H]1C(=O)N1CCC[C@H]1C(=O)N1CCC[C@H]1C(=O)N[C@@H](CO)C(=O)N[C@@H](CCCCN)C(N)=O)C(C)C` (stereo partly drawn) [Compound P016]: at human GIPR, the “GIPR EC50 ratio” value was found to be 1.00. Besides, the AUC(0-t) in series [1] (setting [2]) stood at 29925 ng·h/mL; in series [1] (dog, in vivo, sc, beagle dogs, single subcutaneous administration, 0.05mg/kg, read-out: AUC0-t), 29900 ± 5660 ng·h/mL. Besides, the maximum concentration (Cmax) is 407.33 ng/mL in series [1] (setting [2]) and 407 ± 45.8 ng/mL in series [1] (dog, in vivo, sc, beagle dogs, single subcutaneous administration, 0.05mg/kg, read-out: Cmax). The Tmax in series [1] (setting [2]) came out at 19.33 h; in series [1] (dog, in vivo, sc, beagle dogs, single subcutaneous administration, 0.05mg/kg, read-out: Tmax), 19.3 ± 8.08 h. The mean residence time (MRT) in series [1] (dog, in vivo, sc, 0.05 mg/kg, MRT0-inf) came out at 108 ± 23.2 h; in series [1] (dog, in vivo, sc, 0.05 mg/kg, MRT0-t) it was 44.8 ± 4.17 h. In addition, the T1/2 in series [1] (dog, in vivo, sc, 0.05 mg/kg) was 69.32 h. For the same compound, the AUC(0-inf) in series [1] (setting [3]) came to 52100 ± 14700 ng·h/mL. For the same compound, the half-life in series [1] (setting [3]) is 69.3 ± 14 h.
